According to patent publication US20210276960A1, “INHIBITORS OF TISSUE TRANSGLUTAMINASE 2 (TG2) AND USES THEREOF” (Northwestern University, priority 2020, published 2021):

Experiments:
[1] = test system: SKOV3 cells adhesion to collagen-1; assay: SKOV3 adhesion to collagen-1 coated wells; type: cell-based; conditions: 25 μM, collagen-1 20 μg/ml
Protocol: FIG. 13. Top SMIs inhibit cell adhesion to FN. A, Effects of top compounds (25 μM) on SKOV3 cells adhesion to FN. B, Dose-dependent effects (1-25 μM) of TG53 on SKOV3 cell adhesion to FN. […] D, Effects of TG53 (25 μM) on SKOV3 cells adhesion to wells coated with collagen-1 (20 μg/ml). E, Effects of TG53 (25 μM) on SKOV3-control or AS-TG2 cells adhesion to FN. Bars represent means+/−SEM of quadruplicate measurements. * denote p<0.05.
(§1) Cells labeled with calcein AM (Life Technologies, #L3224) were seeded at a density of 4×10^4 cells in 96-well plates pre-coated with FN (5 μg/mL, Sigma, #F1141), and blocked using 1% BSA (Sigma, #A9647) in PBS in the presence of selected compounds diluted at the specified concentrations, in serum free media. After 45 minutes, unattached cells were washed using PBS containing 1 mM MgCl2(Sigma, #M8266) and adherent cells were quantified in a SpectraMaxGeminiXS fluorescence plate reader (Molecular Devices, Palo Alto, Calif.) at 530 nm wavelength. Experiments were performed inquadruplicate and repeated at least twice.

OC cells = conditions: 10 μM; not shown, see ref 11; cited from earlier work
SKOV3 cells = conditions: cited from earlier work
[2] = test system: OVCAR433 cells adhesion onto LP9 monolayers; assay: Cell adhesion to LP9 mesothelial monolayers, OVCAR433; type: cell-based; conditions: at concentrations >10 μM
Protocol: LP9 mesothelial cells added to clear-bottom 96-well plate at 12,000 cells/well were grown to confluency over 48 hours (h). OC cells were labeled with calcein AM and seeded at a density of 4×10^4 cells to monolayers of mesothelial cells and incubated for 1 h. Non-adherent cells were removed by washing with PBS.

[3] = test system: OVCAR433 cells adhesion to FN; assay: Solid phase adhesion assay to FN, OVCAR433; type: cell-based; set-up: inhibition of adhesion to FN relative to TG53: dose or concentration left out as unconfirmed
Protocol: as §1

OVCAR5 cells [4] = assay: Wound-healing assay, OVCAR5; type: cell-based, human; conditions: 8 μM, 24 hours
Protocol: Wound Healing was Performed in 12-Well Plates Coated with 1 μg/Ml FN (Sigma, #1141) overnight at 4° C. OC cells were plated at a density of 2×10^5 cells/well in media containing 2% FBS. Under these conditions cells adhered on substrate, but cell proliferation was minimized. After 16 hours, the cell monolayer was scraped in straight line. Cell debris was removed and serum free media containing selected SMIs or control was replenished. For consistency during image acquisition, a reference point was marked close to the scratch mark and the plate was imaged under phase-contrast microscope at 0, 2, 6, 12 and 24 hours. Wound closure was assessed as the distance between the wound edges, calculated and quantified using the Image Pro-Express software. The percentage of wound closure was evaluated using the formula […]. The rate of migration (μm/h) of OC cells into the wound space was evaluated as the distance difference between wound edges at 0 and 24 h, divided by 24. The experiments were performed in duplicates.

TG2 = biological target: T1, TG2 (Cavia cutleri, UniProt P08587); assay: Isothermal titration calorimetry (ITC); type: binding
T1 construct: purchased Sigma T5398
Protocol: The 45 kDa fibronectin fragment (FN45) corresponding to the TG2 binding region (Sigma, # F0162) was biotinylated using Biotin (Type A) Fast Conjugation Kit (Abcam, # ab201795). Biotinylated FN45 (10 μg/mL in PBS) was captured on pre-hydrated streptavidin-coated sensors (Pall Forte Bio SAX 18-5117). At each TG2 concentration, the binding kinetics were determined by following this sequence run: baseline (PBS for 30 s), association step (varying concentrations of TG2 in PBS for 120 s), and dissociation step (PBS for 120 s). A new FN45 biosensor was prepared for each run. To analyze the effect of the inhibitor MT4 on the interaction between TG2 and FN, a solution of 20 μg/mL of bio-FN45 was used for capturing FN45 on the streptavidin-coated sensors and the association step was 90 s. For each sensor, the capturing step was measured in real-time in order to assess the stability of the signal and the reproducibility between sensors. The saturation level Rmax was 0.6 (+0.08) for all sensors and no dissociation of the biotinylated FN45 was observed over 60 minutes. […] For the experiments with (TG2+MT4), controls were performed at each MT4 concentration and Rmax values were corrected for non-specific binding and any effects of DMSO on the TG2-FN45 interaction (these effects were below 8%). All BLI experiments were performed at 22° C. […]

OVCAR5 cells [5] = assay: Colony forming assay after priming, with paclitaxel; type: cell-based, human; conditions: priming with 1 μM for 72 hours before 5 nM PTX
Protocol: After 72 h priming with either 1 μM MT-4, TG53 or vehicle (DMSO), 150 OVCAR5 cells were seeded in 60 mm dishes and treated or not with paclitaxel (PTX, Sigma). Colonies were allowed to form over 10 days, fixed in 4% PFA and stained with 0.4% crystal violet (MP Biomedicals). Colonies were counted, and analysis was performed using the ImageJ software ([…]).Spheroid cultures were carried out as previously described(Condello et al., 2015). Briefly, OC cells were resuspended in Mammocult complete medium (StemCell Technologies) supplemented with Mammocult Proliferation Supplements, heparin and hydrocortisone (StemCell Technologies) and seeded at a concentration of 10,000 cells/well in 96-well ultra-low attachment plates (Corning, Corning, N.Y., USA). After treatment with DMSO (control) or TG53 (1 μM) for 7 days, spheroids were counted and quantified by the CCK-8 assay. All assays were performed in four replicates and were repeated. For priming before PTX treatment, cells were manipulated as described for CFU assay and then seeded in 6-well low-attachment plate (Corning, #3473) at 7000 cells/mL/well and allowed to form spheroids in complete Mammocult media. Spheres were counted after ten days from 4 replicate wells. Two independent experiments were performed.

FN45-TG2 interaction = assay: Bio-layer interferometry (BLI) of FN45-TG2 binding
Protocol: The 45 kDa fibronectin fragment (FN45) corresponding to the TG2 binding region (Sigma, # F0162) was biotinylated using Biotin (Type A) Fast Conjugation Kit (Abcam, # ab201795). Biotinylated FN45 (10 μg/mL in PBS) was captured on pre-hydrated streptavidin-coated sensors (Pall Forte Bio SAX 18-5117). At each TG2 concentration, the binding kinetics were determined by following this sequence run: baseline (PBS for 30 s), association step (varying concentrations of TG2 in PBS for 120 s), and dissociation step (PBS for 120 s). A new FN45 biosensor was prepared for each run. To analyze the effect of the inhibitor MT4 on the interaction between TG2 and FN, a solution of 20 μg/mL of bio-FN45 was used for capturing FN45 on the streptavidin-coated sensors and the association step was 90 s. For each sensor, the capturing step was measured in real-time in order to assess the stability of the signal and the reproducibility between sensors. The saturation level Rmax was 0.6 (+0.08) for all sensors and no dissociation of the biotinylated FN45 was observed over 60 minutes. […] For the experiments with (TG2+MT4), controls were performed at each MT4 concentration and Rmax values were corrected for non-specific binding and any effects of DMSO on the TG2-FN45 interaction (these effects were below 8%). All BLI experiments were performed at 22° C. Data fitted globally using the BLItz Pro 1.10.31 software package as described(14, 15). Isothermal titration calorimetry (ITC) was performed at 25° C. by titrating 160 μM MT4 into a 10 μM solution of TG2 (Sigma, #T5398).

T1 sequence (P08587 whole entry): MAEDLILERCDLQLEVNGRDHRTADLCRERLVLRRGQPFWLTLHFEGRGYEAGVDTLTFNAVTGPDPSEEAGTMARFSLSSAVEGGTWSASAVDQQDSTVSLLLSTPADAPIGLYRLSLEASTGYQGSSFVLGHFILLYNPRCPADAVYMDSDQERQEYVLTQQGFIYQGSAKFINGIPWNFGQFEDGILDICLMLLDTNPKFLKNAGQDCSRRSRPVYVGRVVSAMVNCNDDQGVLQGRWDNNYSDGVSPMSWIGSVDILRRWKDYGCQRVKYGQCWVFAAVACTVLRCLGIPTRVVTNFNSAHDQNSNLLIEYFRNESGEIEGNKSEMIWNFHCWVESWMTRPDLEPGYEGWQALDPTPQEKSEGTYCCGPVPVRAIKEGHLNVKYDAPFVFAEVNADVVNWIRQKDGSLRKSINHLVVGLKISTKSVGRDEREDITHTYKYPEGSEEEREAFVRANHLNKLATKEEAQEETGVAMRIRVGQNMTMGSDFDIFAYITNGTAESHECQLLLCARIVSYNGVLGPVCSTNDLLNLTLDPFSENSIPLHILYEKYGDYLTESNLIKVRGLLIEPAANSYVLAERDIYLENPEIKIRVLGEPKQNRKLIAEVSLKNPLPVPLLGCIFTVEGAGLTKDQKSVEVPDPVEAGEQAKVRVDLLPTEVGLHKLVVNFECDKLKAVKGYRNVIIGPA
Protocol for Tolerability in vivo: Three doses were administered 25, 50 and 100 mg/kg to cohorts of 3 mice. A) Average weights, B) average white blood cell counts (WBC), C) average hemoglobin (Hgb) and D) average platelet (Plt) counts measured 1 week after administration at the 3 doses (n=3).

Compound	adhesion to collagen [1]	wound closure, cell migration rate, and invasion through matrigel coated trans-well plates (OC cells)	hematological toxicity (Tolerability in vivo; WBC, Hgb, Plt 1 week after administration)	tolerated dose (Tolerability in vivo; doses 25, 50 and 100 mg/kg)	cytotoxicity (SKOV3 cells)	OVCAR433 adhesion to the LP9 layer [2]	inhibition of adhesion to FN relative to TG53 [3]	cell adhesion to FN, dose dependence ([3]; 2 μM-25 μM)	motility (scratch repair) (OVCAR5 cells [4])	Kd (TG2)	change in enthalpy, ΔH (TG2; 160 μM MT4 titrated into 10 μM TG2, 25° C.)	colony formation (OVCAR5 cells [5])	FN45 and rTG2 complex formation (FN45-TG2 interaction; FN45 on sensors incubated with MT4, 16 nM to 500 μM, 15, 30, 45 minutes)	dissociation of FN45-TG2 (FN45-TG2 interaction; TG2 pre-incubated with MT4)	association between FN45 and rTG2 (FN45-TG2 interaction; rTG2 incubated with MT4 prior to BLI)
COc1ccc(Cl)cc1C(=O)Nc1ccc(Nc2nc(C)cc(N(C)C)n2)cc1 [TG53]	did not inhibit	decreased	did not induce	up to 50 mg/kg	not cytotoxic	–	–	–	–	–	–	–	–	–	–
Cc1cc(N(C)C)nc(Nc2ccc(NC(=O)Cc3ccccc3)cc2)n1 [MT-4]	–	–	–	–	–	dose-dependent inhibitory effect	more active than TG53	dose-dependent inhibitory effect	inhibited	5.1 µM	-20.5 kcal/mol	diminished	not affected	faster dissociation	Dose-dependent inhibition
